Measured values from patent US11691962B2 (eXIthera Pharmaceuticals, Inc., priority 2018, dated 2023).

Columns and labels:
[1] = Caco-2 cell permeability assay; format: in vitro ADME, human; settings: human, 37° C.; for Papp A→B at 60 min, 10 μM: Caco-2, apical to basolateral; for Papp B→A at 40 min, 10 μM: Caco-2, basolateral to apical
Description: The following procedure was used to determine the ability of a test compound to cross Caco-2 cells (human intestinal epithelial cells derived from a colorectal adenocarcinoma). The cells were seeded at 1×10^5 cells/cm^2 in 96-well Multiscreen™ plates (Millipore). Permeability assays were performed with the cells at days 21-25 post-seeding. Cells are typically used for 15 consecutive passages in culture.
This assay can be performed in either the apical to basolateral (A-B) or basolateral to apical (B-A) direction. The test compound was prepared at 10 μM in HBSS-MES (pH 6.5) or HBSS-HEPES (pH 7.4) with a final DMSO concentration of 1%. The working solution was then centrifuged and the supernatant added to the donor side. The assay plate was incubated at 37° C. with gentle shaking for 60 min or 40 min for the A-B or B-A assay, respectively. Samples were aliquoted from the donor side at time zero and the end point, and from the receiver side at the end point.
Reference compounds, propranolol (highly permeable), labetalol (moderately permeable), ranitidine (poorly permeable), and colchicine (P-glycoprotein substrate) were included in each assay.
Samples are analyzed by HPLC-MS/MS using selected reaction monitoring. The HPLC system consists of a binary LC pump with autosampler, a C-18 column, and a gradient.
The apparent permeability coefficient (Papp) of the test compound (Equation 2) and its recovery (Equation 3) are calculated as follows:
[formula] wherein A is the surface area of the cell monolayer (0.11 cm^2), C is concentration of the test compound expressed as peak area, D denotes donor, and R is receiver. “0”, “mid,” and “end” denote time at zero, mid-point, and end of the incubation, respectively. Δt is the incubation time. V is the volume of the donor or receiver.
This is most likely due to non-specific binding or degradation.

[2] = molecular target: Factor XIa (Homo sapiens (Human), UniProt P03951); experiment: Factor XIa enzyme inhibition assay (dose response, fluorogenic AMC substrate); format: biochemical; settings: read-out: hFXIa IC50
Factor XIa, sequence (P03951 388-625): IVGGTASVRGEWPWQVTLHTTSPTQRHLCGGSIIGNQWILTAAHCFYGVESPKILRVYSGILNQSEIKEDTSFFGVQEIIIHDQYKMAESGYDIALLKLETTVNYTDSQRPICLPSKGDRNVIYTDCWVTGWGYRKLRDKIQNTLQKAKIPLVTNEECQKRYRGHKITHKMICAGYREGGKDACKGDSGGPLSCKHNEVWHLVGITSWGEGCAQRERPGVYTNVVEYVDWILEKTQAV
Factor XIa, sequence (P03951 19-387 partner): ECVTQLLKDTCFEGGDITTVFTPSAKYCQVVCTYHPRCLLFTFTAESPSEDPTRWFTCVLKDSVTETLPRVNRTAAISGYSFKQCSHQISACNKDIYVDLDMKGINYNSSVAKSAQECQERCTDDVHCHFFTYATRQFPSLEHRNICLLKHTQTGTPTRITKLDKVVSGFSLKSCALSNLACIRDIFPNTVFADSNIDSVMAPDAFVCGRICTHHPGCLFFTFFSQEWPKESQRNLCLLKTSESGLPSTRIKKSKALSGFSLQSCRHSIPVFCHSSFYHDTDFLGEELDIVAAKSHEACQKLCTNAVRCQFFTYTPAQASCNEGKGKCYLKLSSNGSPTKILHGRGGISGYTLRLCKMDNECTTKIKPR
How it was run: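 Human FXIa at 0.25 nM final with 50 μM final PyroGlu-Pro-Arg-AMC in 20 mM Hepes pH 7.4, 150 mM NaCl, 0.02% Tween 20. Two-fold serial compound dilutions; fluorescence read every minute for 30 min at 30° C. IC50 from a four-parameter Hill fit.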

[3] = Plasma protein binding by equilibrium dialysis; format: in vitro ADME; settings: both sexes, pH 7.4, pooled human plasma, 4 hours at 37° C., read-out: PPB (%)
Description: The following procedure was used to determine the plasma protein binding of a test compound in pooled plasma from human (mixed gender) via equilibrium dialysis in a 96-well plate format. The dialysate compartment was loaded with phosphate-buffered saline (pH 7.4) and the sample side was loaded with plasma spiked with the test compound at a concentration of 10 μM. After loading, samples were covered and incubated for 4 hours at 37° C. After incubation, each compartment was sampled, diluted with acetonitrile/buffer and centrifuged. The supernatants were analyzed by HPLC-MS/MS. The analyte peak areas obtained from HPLC-MS/MS analysis of each sample were used to calculate protein binding according to the following equation (Equation 4):
[formula] where: AREAp=Peak area of analyte in protein matrix; AREAb=Peak area of analyte in buffer.
The amount measured in the plasma compartment included both free and bound drug, while that on the buffer side represented free drug only; the differences were used to calculate the percentage plasma protein bound. Three reference compounds were tested in each assay: acebutolol, quinidine and warfarin.

Papp A→B at 60 min, 10 μM [1] [×10⁻⁶ cm/s]	Papp B→A at 40 min, 10 μM [1] [×10⁻⁶ cm/s]	IC50 [2] [µM]	fraction unbound at 4 h, 10 μM [3]	Compound
< 10	31 to 50	< 0.01	0.1 to 0.5	CC[C@@H](NC(=O)N1C(=O)[C@H](Cc2ccnc(N)c2)[C@H]1C(=O)N(C)c1ccn(C)n1)c1ccccc1 [Compound 1-3, (2S,3R)-3-((2-aminopyridin-4-yl)methyl)-N2-(1-methyl-1H-pyrazol-3-yl)-N1-((R)-1-phenylpropyl)-N2-methyl-4-oxoazetidine-1,2-dicarboxamide]
11 to 30	11 to 30	< 0.01	0.1 to 0.5	CC[C@@H](NC(=O)N1C(=O)[C@H](Cc2ccnc(N)c2)[C@H]1C(=O)N(C)c1ccnn1C)c1cccc(Cl)c1 [Compound 1-4, (2S,3R)-3-((2-aminopyridin-4-yl)methyl)-N2-(1-methyl-1H-pyrazol-5-yl)-N1-((R)-1-(3-chlorophenyl)propyl)-N2-methyl-4-oxoazetidine-1,2-dicarboxamide]
< 10	31 to 50	< 0.01	0.1 to 0.5	CC[C@@H](NC(=O)N1C(=O)[C@H](Cc2ccnc(N)c2)[C@H]1C(=O)N(C)c1cscn1)c1ccccc1 [Compound 1-8, (2S,3R)-3-((2-aminopyridin-4-yl)methyl)-N2-(4-thiazolyl)-N1-((R)-1-phenylpropyl)-N2-methyl-4-oxoazetidine-1,2-dicarboxamide]
11 to 30	11 to 30	< 0.01	0.05 to 0.09	CC[C@@H](NC(=O)N1C(=O)[C@H](Cc2ccnc(N)c2)[C@H]1C(=O)N(C)c1cccs1)c1ccccc1 [Compound 1-10, (2S,3R)-3-((2-aminopyridin-4-yl)methyl)-N2-(thiophen-2-yl)-N1-((R)-1-phenylpropyl)-N2-methyl-4-oxoazetidine-1,2-dicarboxamide]
< 10	11 to 30	< 0.01	0.1 to 0.5	CC[C@@H](NC(=O)N1C(=O)[C@H](Cc2ccnc(N)c2)[C@H]1C(=O)N(C)c1nccn1C)c1ccccc1 [Compound 1-13, (2S,3R)-3-((2-aminopyridin-4-yl)methyl)-N2-(1-methyl-1H-imidazol-2-yl)-N1-((R)-1-phenylpropyl)-N2-methyl-4-oxoazetidine-1,2-dicarboxamide]
< 10	11 to 30	0.01 to 0.1	0.1 to 0.5	CC[C@@H](NC(=O)N1C(=O)[C@H](Cc2cc(C)nc(N)c2)[C@H]1C(=O)N(C)c1cnn(C)c1)c1cccc(Cl)c1 [Compound 1-15, (2S,3R)-3-((2-amino-6-methylpyridin-4-yl)methyl)-N2-(1-methyl-1H-pyrazol-4-yl)-N1-((R)-1-(3-chlorophenyl)propyl)-N2-methyl-4-oxoazetidine-1,2-dicarboxamide]
11 to 30	11 to 30	< 0.01	0.05 to 0.09	CC[C@@H](NC(=O)N1C(=O)[C@H](Cc2ccnc(N)c2)[C@H]1C(=O)N(C)c1cscn1)c1cccc(Cl)c1 [Compound 1-17, (2S,3R)-3-((2-aminopyridin-4-yl)methyl)-N2-(4-thiazolyl)-N1-((R)-1-(3-chlorophenyl)propyl)-N2-methyl-4-oxoazetidine-1,2-dicarboxamide]
< 10	< 10	0.01 to 0.1	< 0.5	CC[C@@H](NC(=O)N1C(=O)[C@H](Cc2ccnc(N)c2)[C@H]1C(=O)N(C)c1cnn(C)c1)c1ccc(C)nc1 [Compound 1-18, (2S,3R)-3-((2-aminopyridin-4-yl)methyl)-N2-(1-methyl-1H-pyrazol-4-yl)-N1-((R)-1-(6-methylpyridin-3-yl)propyl)-N2-methyl-4-oxoazetidine-1,2-dicarboxamide]
< 10	11 to 30	< 0.01	0.1 to 0.5	CC[C@@H](NC(=O)N1C(=O)[C@H](Cc2cc(C)nc(N)c2)[C@H]1C(=O)N(C)c1ccn(C)n1)c1cccc(C)c1 [Compound 1-22, (2S,3R)-3-((2-amino-6-methylpyridin-4-yl)methyl)-N2-(1-methyl-1H-pyrazol-3-yl)-N1-((R)-1-(3-methylphenyl)propyl)-N2-methyl-4-oxoazetidine-1,2-dicarboxamide]
11 to 30	11 to 30	< 0.01	0.05 to 0.09	CN(C(=O)[C@@H]1[C@@H](Cc2ccnc(N)c2)C(=O)N1C(=O)N[C@@H](C1CCCCC1)C(F)(F)F)c1ccn(C)n1 [Compound 1-32, (2S,3R)-3-((2-aminopyridin-4-yl)methyl)-N2-(1-methyl-1H-pyrazol-3-yl)-N1-((S)-1-cyclohexyl-2,2,2-trifluoroethyl)-N2-methyl-4-oxoazetidine-1,2-dicarboxamide]
< 10	31 to 50	< 0.01	0.1 to 0.5	CC[C@@H](NC(=O)N1C(=O)[C@H](Cc2ccnc(N)c2)[C@H]1C(=O)N(C)c1nccn1C)c1cccc(Cl)c1 [Compound 1-35, (2S,3R)-3-((2-aminopyridin-4-yl)methyl)-N2-(1-methyl-1H-imidazol-2-yl)-N1-((R)-1-(3-chlorophenyl)propyl)-N2-methyl-4-oxoazetidine-1,2-dicarboxamide]
< 10	31 to 50	0.01 to 0.1	0.1 to 0.5	CC[C@@H](NC(=O)N1C(=O)[C@H](Cc2ccnc(NC)c2)[C@H]1C(=O)N(C)c1nccn1C)c1cccc(Cl)c1 [Compound 1-41, (2S,3R)-3-((2-methylaminopyridin-4-yl)methyl)-N2-(1-methyl-1H-imidazol-2-yl)-N1-((R)-1-(3-chlorophenyl)propyl)-N2-methyl-4-oxoazetidine-1,2-dicarboxamide]
< 10	11 to 30	< 0.01	0.1 to 0.5	CC[C@@H](NC(=O)N1C(=O)[C@H](Cc2cc(C)nc(N)c2)[C@H]1C(=O)N(C)c1nccn1C)c1cccc(Cl)c1 [Compound 1-43, (2S,3R)-3-((2-amino-6-methylpyridin-4-yl)methyl)-N2-(1-methyl-1H-imidazol-2-yl)-N1-((R)-1-(3-chlorophenyl)propyl)-N2-methyl-4-oxoazetidine-1,2-dicarboxamide]
11 to 30	31 to 50	0.01 to 0.1	0.1 to 0.5	CC[C@@H](NC(=O)N1C(=O)[C@H](Cc2cc(C)nc(NC)c2)[C@H]1C(=O)N(C)c1nccn1C)c1ccccc1 [Compound 1-45, (2S,3R)-3-((2-methylamino-6-methylpyridin-4-yl)methyl)-N2-(1-methyl-1H-imidazol-2-yl)-N1-((R)-1-phenylpropyl)-N2-methyl-4-oxoazetidine-1,2-dicarboxamide]
		< 0.01		(2S,3R)-3-((2-amino-6-methylpyridin-4-yl)methyl)-N2-(1-methyl-1H-imidazol-2-yl)-N1-((R)-1-(3-fluorophenyl)propyl)-N2-methyl-4-oxoazetidine-1,2-dicarboxamide [Compound 1-120]
